Source: US9932354B2, “Imidazo-oxadiazole and imidazo-thiadiazole derivatives” (Ares Trading S.A., priority 2012, dated 2018)

Experiments:
[1] = test system: Amyloid-β peptide release (AβTotal), HEK cells overexpressing APP (HEK-APP); assay: Amyloid-β peptide release (AβTotal) assay, AlphaLISA on supernatant of HEK-APP cells; assay type: cell-based; settings: ratio Abtot vs Ab42, HEK-APP cells, 24 h
Procedure: (§1) Amyloid-β Peptide Release (Aβ42 & AβTotal) Assay to Determine IC50 Values.
(§2) Compounds are dissolved in and diluted in 100% DMSO and incubated with HEK-APP cells for 24 h at 37° C. in 5% CO2. The supernatant from HEK-APP cells are mixed with antibodies: for Aβ42 detection: AlphaLISA Amyloid-β 1-42 Kit (Perkin Elmer AL203L) Anti-Amyloid β1-42-specific antibody acceptor beads, biotinylated anti-Amyloid-“β1-42” antibody and streptavidin (SA) donor beads diluted in AlphaLISA buffer (to the instructions of the supplier). For Aβ total detection: Custom Anti-Amyloid-βtotal acceptor beads (6E10 acceptor beads), biotinylated anti-Amyloid “β1-42” antibody (Perkin Elmer AL203L) and streptavidin (SA) donor beads diluted in AlphaLISA buffer (to the instructions of the supplier). After addition of supernatant to the antibody mix, the assay is incubated for 4.5 h. Amyloid-β peptide release (Aβ42 & AβTotal) is measured with a Pherastar FS (BMG) multimode reader using the alphascreen module.

[2] = test system: Amyloid-β peptide release (Aβ42), HEK cells overexpressing APP (HEK-APP); assay: Amyloid-β peptide release (Aβ42) assay, AlphaLISA on supernatant of HEK-APP cells; assay type: cell-based; settings: Homo sapiens, HEK293, 24 h incubation with compound, read-out: Ab42 IC50 Ranges
Procedure: as §1, §2

Structure (SMILES) | Abtot/Ab42 selectivity ranges [1] | IC50 [2]
Cc1ncc2oc(-c3ccc(Nc4nccc(NCc5ccccc5C(F)(F)F)n4)cc3)nn12 [Example 74, N2-(4-(5-methylimidazo[5,1-b][1,3,4]oxadiazol-2-yl)phenyl)-N4-(2-(trifluoromethyl)benzyl)pyrimidine-2,4-diamine] | d (d: 10 fold > selectivity) | 1000 to 2200 nM
Cc1ncc2oc(-c3ccc(NC(=O)Cc4cccc(C#N)c4)cc3)nn12 [Example 64, 2-(3-cyanophenyl)-N-(4-(5-methylimidazo[5,1-b][1,3,4]oxadiazol-2-yl)phenyl)acetamide] | b (b: 100 fold > selectivity ≥ 50 fold) | 500 to 1000 nM
COc1cc(NC(=O)Cc2ccccc2)ccc1-c1nn2c(C)ncc2o1 [Example 36, N-(3-methoxy-4-(5-methylimidazo[5,1-b][1,3,4]oxadiazol-2-yl)phenyl)-2-phenylacetamide] | c (c: 50 fold > selectivity ≥ 10 fold) | 1000 to 2200 nM
Cc1ncc2sc(C(=O)N3CCCC3c3ccc(Br)cc3)nn12 (stereo not shown) [Example 110, [2-(4-Bromo-phenyl)-pyrrolidin-1-yl]-(5-methyl-imidazo[5,1-b][1,3,4]thiadiazol-2-yl)-methanone] | d (d: 10 fold > selectivity) | < 100 nM
COc1cc(NC(=O)Cc2cc(C)ccc2C)ccc1-c1nn2c(C)ncc2s1 [Example 126, 2-(2,5-Dimethyl-phenyl)-N-[3-methoxy-4-(5-methyl-imidazo[5,1-b][1,3,4]thiadiazol-2-yl)-phenyl]-acetamide] | d (d: 10 fold > selectivity) | 500 to 1000 nM
Cc1ncc2sc(C(=O)N3CCCCC3c3ccccc3Cl)nn12 (stereo not shown) [Example 115, [2-(2-Chloro-phenyl)-piperidin-1-yl]-(5-methyl-imidazo[5,1-b][1,3,4]thiadiazol-2-yl)-methanone] | d (d: 10 fold > selectivity) | 500 to 1000 nM
Cc1ncc2oc(-c3ccc(NC(=O)Cc4cccc(Cl)c4)cc3)nn12 [Example 63, 2-(3-chlorophenyl)-N-(4-(5-methylimidazo[5,1-b][1,3,4]oxadiazol-2-yl)phenyl)acetamide] | b (b: 100 fold > selectivity ≥ 50 fold) | 500 to 1000 nM
Cc1ccc(C2CCCN2C(=O)c2nn3c(C)ncc3s2)cc1 (stereo not shown) [Example 119, (5-Methyl-imidazo[5,1-b][1,3,4]thiadiazol-2-yl)-(2-p-tolyl-pyrrolidin-1-yl)-methanone] | d (d: 10 fold > selectivity) | 100 to 500 nM
Cc1ncc2sc(C(=O)N3CCCC3c3ccccc3)nn12 (stereo not shown) [Example 93, (5-Methyl-imidazo[5,1-b][1,3,4]thiadiazol-2-yl)-(2-phenyl-pyrrolidin-1-yl)-methanone] | d (d: 10 fold > selectivity) | 100 to 500 nM
COc1ccccc1CC(=O)Nc1ccc(-c2nn3c(C)ncc3o2)cc1 [Example 53, 2-(2-Methoxy-phenyl)-N-[4-(5-methyl-imidazo[5,1-b][1,2,4]oxadiazol-2-yl)-phenyl]-acetamide] | d (d: 10 fold > selectivity) | 1000 to 2200 nM
Cc1ncc2oc(-c3ccc(NC(=O)Nc4cccc(C(F)(F)F)c4)cc3)nn12 [Example 52, 1-[4-(5-Methyl-imidazo[5,1-b][1,2,4]oxadiazol-2-yl)-phenyl]-3-(3-trifluoromethyl-phenyl)-urea] | d (d: 10 fold > selectivity) | 1000 to 2200 nM
Cc1ccc(C)c(CC(=O)Nc2ccc(-c3nn4c(C)ncc4o3)cc2)c1 [Example 50] | c (c: 50 fold > selectivity ≥ 10 fold) | 500 to 1000 nM
Cc1ncc2oc(-c3ccc(NC(=O)NCc4ccccc4Cl)cc3)nn12 [Example 54, 1-(2-Chloro-benzyl)-3-[4-(5-methyl-imidazo[5,1-b][1,2,4]oxadiazol-2-yl)-phenyl]-urea] | c (c: 50 fold > selectivity ≥ 10 fold) | 1000 to 2200 nM
Cc1ncc2sc(-c3ccc(NC(=O)Cc4cccc(C(F)(F)F)c4)cc3)nn12 [Example 100, N-[4-(5-Methyl-imidazo[5,1-b][1,3,4]thiadiazol-2-yl)-phenyl]-2-(3-trifluoromethyl-phenyl)-acetamide] | b (b: 100 fold > selectivity ≥ 50 fold) | 100 to 500 nM
Cc1ncc2oc(-c3ccc(NC(=O)C4(c5ccc(Cl)cc5)CCC4)cn3)nn12 [Example 84, 1-(4-Chloro-phenyl)-cyclobutanecarboxylic acid [6-(5-methyl-imidazo[5,1-b][1,2,4]oxadiazol-2-yl)-pyridin-3-yl]-amide] | c (c: 50 fold > selectivity ≥ 10 fold) | 500 to 1000 nM
Cc1ncc2sc(C(=O)N3CCCC3c3ccc(C(F)(F)F)cc3)nn12 (stereo not shown) [Example 112, (5-Methyl-imidazo[5,1-b][1,3,4]thiadiazol-2-yl)-[2-(4-trifluoromethyl-phenyl)-pyrrolidin-1-yl]-methanone] | d (d: 10 fold > selectivity) | 100 to 500 nM
Cc1cc(-c2nn3c(C)ncc3o2)ccc1NC(=O)C(C)c1cccc(C(F)(F)F)c1 (stereo not shown) [Example 46, N-(2-methyl-4-(5-methylimidazo[5,1-b][1,3,4]oxadiazol-2-yl)phenyl)-2-(3-(trifluoromethyl)phenyl)propanamide] | b (b: 100 fold > selectivity ≥ 50 fold) | 500 to 1000 nM
Cc1cc(-c2nn3c(C)ncc3o2)ccc1NC(=O)Cc1ccc(OC(F)(F)F)cc1 [Example 45, N-(2-methyl-4-(5-methylimidazo[5,1-b][1,3,4]oxadiazol-2-yl)phenyl)-2-(4-(trifluoromethoxy)phenyl)acetamide] | b (b: 100 fold > selectivity ≥ 50 fold) | 500 to 1000 nM
Cc1ncc2oc(-c3ccc(C(=O)NCc4csc5ccc(Cl)cc45)cc3)nn12 [Example 88, N-((5-chlorobenzo[b]thiophen-3-yl)methyl)-4-(5-methylimidazo[5,1-b][1,3,4]oxadiazol-2-yl)benzamide] | c (c: 50 fold > selectivity ≥ 10 fold) | 1000 to 2200 nM
Cc1ncc2oc(-c3ccc(NC(=O)Nc4ccc(OC(F)(F)F)cc4)cc3)nn12 [Example 59, 1-[4-(5-Methyl-imidazo[5,1-b][1,2,4]oxadiazol-2-yl)-phenyl]-3-(4-trifluoromethoxy-phenyl)-urea] | c (c: 50 fold > selectivity ≥ 10 fold) | 1000 to 2200 nM
Cc1ncc2oc(-c3ccc(Nc4ccnc(NCc5ccccc5)n4)cc3)nn12 [Example 72, N2-benzyl-N4-(4-(5-methylimidazo[5,1-b][1,3,4]oxadiazol-2-yl)phenyl)pyrimidine-2,4-diamine] | d (d: 10 fold > selectivity) | 1000 to 2200 nM
Cc1ncc2sc(C(=O)NCc3ccccc3-c3ccccc3)nn12 [Example 111, 5-Methyl-imidazo[5,1-b][1,3,4]thiadiazole-2-carboxylic acid (biphenyl-2-ylmethyl)-amide] | d (d: 10 fold > selectivity) | 1000 to 2200 nM
COc1cc(NC(=O)Cc2cccc(Cl)c2)ccc1-c1nn2c(C)ncc2o1 [Example 33, 2-(3-chlorophenyl)-N-(3-methoxy-4-(5-methylimidazo[5,1-b] [1,3,4]oxadiazol-2-yl)phenyl)acetamide] | b (b: 100 fold > selectivity ≥ 50 fold) | 500 to 1000 nM
Cc1ncc2sc(C(=O)N3CCC[C@H]3c3ccc(Br)cc3)nn12 [Example 114, (S)-(2-(4-bromophenyl)pyrrolidin-1-yl) (5-methylimidazo[5,1-b][1,3,4]thiadiazol-2-yl)methanone] | d (d: 10 fold > selectivity) | 1000 to 2200 nM
Cc1ncc2oc(-c3ccc(NC(=O)Cc4ccc(Cl)c(Cl)c4)cc3)nn12 [Example 77, 2-(3,4-dichlorophenyl)-N-(4-(5-methylimidazo[5,1-b][1,3,4]oxadiazol-2-yl)phenyl)acetamide] | a (a: selectivity ≥ 100 fold) | 100 to 500 nM
Cc1ncc2oc(-c3ccc(NC(=O)Cc4c(Cl)cc(C(F)(F)F)cc4Cl)cc3)nn12 [Example 67, 2-(2,6-dichloro-4-(trifluoromethyl)phenyl)-N-(4-(5-methylimidazo [5,1-b][1,3,4]oxadiazol-2-yl)phenyl)acetamide] | c (c: 50 fold > selectivity ≥ 10 fold) | 1000 to 2200 nM
Cc1ncc2oc(-c3ccc(Nc4nc5n(n4)CCCC5c4ccc(Cl)cc4Cl)cc3)nn12 (stereo not shown) [Example 25, [8-(2,4-Dichloro-phenyl)-5,6,7,8-tetrahydro-[1,2,4]triazolo[1,5-a]pyridin-2-yl]-[4-(5-methyl-imidazo[5,1-b][1,2,4]oxadiazol-2-yl)-phenyl]-amine] | c (c: 50 fold > selectivity ≥ 10 fold) | 500 to 1000 nM
Cc1ncc2oc(-c3ccc(NC(=O)Cc4ccc(Cl)cc4)cc3)nn12 [Example 47, 2-(4-Chloro-phenyl)-N-[4-(5-methyl-imidazo[5,1-b] [1,2,4]oxadiazol-2-yl)-phenyl]-acetamide] | c (c: 50 fold > selectivity ≥ 10 fold) | 500 to 1000 nM
Cc1ncc2oc(-c3ccc(NC(=O)Cc4csc5ccc(Cl)cc45)cc3)nn12 [Example 73, 2-(5-chlorobenzo[b]thiophen-3-yl)-N-(4-(5-methylimidazo[5,1-b] [1,3,4]oxadiazol-2-yl)phenyl)acetamide] | c (c: 50 fold > selectivity ≥ 10 fold) | 1000 to 2200 nM
